Like-named read-outs stand apart in the source and are kept apart here. *1 amine or outer side, *2 acyl side, *3 side chain or, on linkers, in order; H or OH if unused. Where a SMILES comes first, the peptide text is derived from it. [ ]: non-standard residue; d: D form. The star is where a group is joined. PEG24 = NCCOCCOCCOCCOCCOCCOCCOCCOCCOCCOCCOCCOCCOCCOCCOCCOCCOCCOCCOCCOCCOCCOCCOCCOCCC(=O)O; X1 = N=C(N)Nc1ccc(C(=O)Oc2ccc(CC(=O)OCC(=O)*)cc2)cc1; X2 = CN(Cc1cn(CC(=O)[*:2])nn1)[*:1]; X3 = O=C(Cn1cc(CN[*:1])nn1)[*:2]; PEG4 = NCCOCCOCCOCCOCCC(=O)O
Assays:
[1] = tested on: wild-type SARS-CoV-2 PsV; conditions: 48 h
[2] = tested on: wild-type SARS-CoV-2 PsV; assay: microbe, parasite or virus in culture; conditions: Severe acute respiratory syndrome coronavirus 2, Caco-2

Compound	IC50 [1]	IC50 [2]
CC[C@H](C)[C@H](NC(=O)[C@H](CCCNC(=N)N)NC(=O)[C@H](CCSC)NC(=O)[C@H](CC(C)C)NC(=O)[C@H](CCC(=O)O)NC(=O)[C@H](Cc1ccc(O)cc1)NC(=O)[C@@H](NC(=O)[C@H](CCCCN)NC(=O)[C@H](CCC(N)=O)NC(=O)[C@H](CC(C)C)NC(=O)[C@@H](NC(=O)[C@H](Cc1c[nH]c2ccccc12)NC(=O)[C@H](CCC(=O)O)NC(=O)[C@H](CCCCN)NC(=O)[C@H](CC(=O)O)NC(=O)CCOCCOCCOCCOCCNC(=O)Cn1cc(CNC(=O)COC(=O)Cc2ccc(OC(=O)c3ccc(NC(=N)N)cc3)cc2)nn1)[C@@H](C)CC)[C@@H](C)CC)C(=O)N[C@@H](CC(C)C)C(=O)N[C@@H](CC(=O)O)C(=O)N[C@@H](CCC(=O)O)C(=O)N[C@@H](CC(C)C)C(=O)NCC(=O)N[C@@H](Cc1c[nH]cn1)C(=O)N[C@@H](C)C(=O)N[C@@H](CCC(=O)O)C(=O)N[C@@H](C)C(=O)N[C@@H](CO)C(=O)N[C@@H](CCSC)C(=O)N[C@@H](CCCNC(=N)N)C(=O)N[C@H](C(=O)N[C@@H](CCC(=O)O)C(=O)N[C@@H](CC(=O)O)C(=O)N[C@@H](CC(C)C)C(=O)N[C@H](C(=O)N[C@@H](Cc1ccc(O)cc1)C(=O)N[C@@H](CCC(=O)O)C(=O)N[C@@H](Cc1ccccc1)C(=O)N[C@@H](CCSC)C(=O)N[C@@H](CCCCN)C(N)=O)[C@@H](C)CC)C(C)C [LP4Z] (X1-[X3][PEG4]DKEWILQKIYELMRILDELGHAEASMRVEDLIYEFMK-NH2)	450 ± 200 nM	–
CN(C)C(=O)COC(=O)Cc1ccc(OC(=O)c2ccc(NC(=N)N)cc2)cc1 [Camostat]	–	4600 ± 2320 nM
CC[C@H](C)[C@H](NC(=O)[C@H](CCCNC(=N)N)NC(=O)[C@H](CCSC)NC(=O)[C@H](CC(C)C)NC(=O)[C@H](CCC(=O)O)NC(=O)[C@H](Cc1ccc(O)cc1)NC(=O)[C@@H](NC(=O)[C@H](CCCCN)NC(=O)[C@H](CCC(N)=O)NC(=O)[C@H](CC(C)C)NC(=O)[C@@H](NC(=O)[C@H](Cc1c[nH]c2ccccc12)NC(=O)[C@H](CCC(=O)O)NC(=O)[C@H](CCCCN)NC(=O)[C@H](CC(=O)O)NC(=O)CCOCCOCCOCCOCCNC(=O)Cn1cc(CN(C)C(=O)COC(=O)Cc2ccc(OC(=O)c3ccc(NC(=N)N)cc3)cc2)nn1)[C@@H](C)CC)[C@@H](C)CC)C(=O)N[C@@H](CC(C)C)C(=O)N[C@@H](CC(=O)O)C(=O)N[C@@H](CCC(=O)O)C(=O)N[C@@H](CC(C)C)C(=O)NCC(=O)N[C@@H](Cc1c[nH]cn1)C(=O)N[C@@H](C)C(=O)N[C@@H](CCC(=O)O)C(=O)N[C@@H](C)C(=O)N[C@@H](CO)C(=O)N[C@@H](CCSC)C(=O)N[C@@H](CCCNC(=N)N)C(=O)N[C@H](C(=O)N[C@@H](CCC(=O)O)C(=O)N[C@@H](CC(=O)O)C(=O)N[C@@H](CC(C)C)C(=O)N[C@H](C(=O)N[C@@H](Cc1ccc(O)cc1)C(=O)N[C@@H](CCC(=O)O)C(=O)N[C@@H](Cc1ccccc1)C(=O)N[C@@H](CCSC)C(=O)N[C@@H](CCCCN)C(N)=O)[C@@H](C)CC)C(C)C [LP4X] (X1-[X2][PEG4]DKEWILQKIYELMRILDELGHAEASMRVEDLIYEFMK-NH2)	400 ± 60 nM	–
Ac-DKEWILQKIYELMRILDELGHAEASMRVEDLIYEFMK-NH2 [LCB1T, reference compound]	440 ± 40 nM	–
CC[C@H](C)[C@H](NC(=O)[C@H](CCCNC(=N)N)NC(=O)[C@H](CCSC)NC(=O)[C@H](CC(C)C)NC(=O)[C@H](CCC(=O)O)NC(=O)[C@H](Cc1ccc(O)cc1)NC(=O)[C@@H](NC(=O)[C@H](CCCCN)NC(=O)[C@H](CCC(N)=O)NC(=O)[C@H](CC(C)C)NC(=O)[C@@H](NC(=O)[C@H](Cc1c[nH]c2ccccc12)NC(=O)[C@H](CCC(=O)O)NC(=O)[C@H](CCCCN)NC(=O)[C@H](CC(=O)O)NC(=O)CCOCCOCCOCCOCCOCCOCCOCCOCCOCCOCCOCCOCCOCCOCCOCCOCCOCCOCCOCCOCCOCCOCCOCCOCCNC(=O)Cn1cc(CNC(=O)COC(=O)Cc2ccc(OC(=O)c3ccc(NC(=N)N)cc3)cc2)nn1)[C@@H](C)CC)[C@@H](C)CC)C(=O)N[C@@H](CC(C)C)C(=O)N[C@@H](CC(=O)O)C(=O)N[C@@H](CCC(=O)O)C(=O)N[C@@H](CC(C)C)C(=O)NCC(=O)N[C@@H](Cc1c[nH]cn1)C(=O)N[C@@H](C)C(=O)N[C@@H](CCC(=O)O)C(=O)N[C@@H](C)C(=O)N[C@@H](CO)C(=O)N[C@@H](CCSC)C(=O)N[C@@H](CCCNC(=N)N)C(=O)N[C@H](C(=O)N[C@@H](CCC(=O)O)C(=O)N[C@@H](CC(=O)O)C(=O)N[C@@H](CC(C)C)C(=O)N[C@H](C(=O)N[C@@H](Cc1ccc(O)cc1)C(=O)N[C@@H](CCC(=O)O)C(=O)N[C@@H](Cc1ccccc1)C(=O)N[C@@H](CCSC)C(=O)N[C@@H](CCCCN)C(N)=O)[C@@H](C)CC)C(C)C [LP24Z] (X1-[X3][PEG24]DKEWILQKIYELMRILDELGHAEASMRVEDLIYEFMK-NH2)	330 ± 10 nM	–
CC[C@H](C)[C@H](NC(=O)[C@H](CCCNC(=N)N)NC(=O)[C@H](CCSC)NC(=O)[C@H](CC(C)C)NC(=O)[C@H](CCC(=O)O)NC(=O)[C@H](Cc1ccc(O)cc1)NC(=O)[C@@H](NC(=O)[C@H](CCCCN)NC(=O)[C@H](CCC(N)=O)NC(=O)[C@H](CC(C)C)NC(=O)[C@@H](NC(=O)[C@H](Cc1c[nH]c2ccccc12)NC(=O)[C@H](CCC(=O)O)NC(=O)[C@H](CCCCN)NC(=O)[C@H](CC(=O)O)NC(=O)CCOCCOCCOCCOCCOCCOCCOCCOCCOCCOCCOCCOCCOCCOCCOCCOCCOCCOCCOCCOCCOCCOCCOCCOCCNC(=O)Cn1cc(CN(C)C(=O)COC(=O)Cc2ccc(OC(=O)c3ccc(NC(=N)N)cc3)cc2)nn1)[C@@H](C)CC)[C@@H](C)CC)C(=O)N[C@@H](CC(C)C)C(=O)N[C@@H](CC(=O)O)C(=O)N[C@@H](CCC(=O)O)C(=O)N[C@@H](CC(C)C)C(=O)NCC(=O)N[C@@H](Cc1c[nH]cn1)C(=O)N[C@@H](C)C(=O)N[C@@H](CCC(=O)O)C(=O)N[C@@H](C)C(=O)N[C@@H](CO)C(=O)N[C@@H](CCSC)C(=O)N[C@@H](CCCNC(=N)N)C(=O)N[C@H](C(=O)N[C@@H](CCC(=O)O)C(=O)N[C@@H](CC(=O)O)C(=O)N[C@@H](CC(C)C)C(=O)N[C@H](C(=O)N[C@@H](Cc1ccc(O)cc1)C(=O)N[C@@H](CCC(=O)O)C(=O)N[C@@H](Cc1ccccc1)C(=O)N[C@@H](CCSC)C(=O)N[C@@H](CCCCN)C(N)=O)[C@@H](C)CC)C(C)C [LP24X] (X1-[X2][PEG24]DKEWILQKIYELMRILDELGHAEASMRVEDLIYEFMK-NH2)	320 ± 30 nM	–

From article PMC12428505, “A Bifunctional SARS-CoV-2 Entry Inhibitor Targeting the Host Protease TMPRSS2 and Viral Spike Protein HR1 Region” (International Journal of Molecular Sciences, 2025)
